The source of these data is ChEMBL document CHEMBL3301361, “Experimental in vitro DMPK and physicochemical data on a set of publicly disclosed compounds”.

The nature of data set [1]: physchem. The note with it: octan-1-ol/water.
A short description of data set [2]: physchem. The conditions noted are these: pH 7.4 buffer.

Values after ≈ are worked out from the molar mass of the structure shown.

Usually logD stands for lipophilicity at a set pH, counting ionised and neutral species. A high value points to higher lipophilicity. The solubility (thermodynamic) is the concentration in solution at equilibrium with solid. As for `CC(=O)OCCn1c(Sc2nc3cccc(Cl)c3s2)nc2c(N)ncnc21`, the logD in data set [1] (pH 7.4, LogD7.4) was 3.16. The same molecule gave a thermodynamic solubility in data set [2] of 4 µM (≈ 1.68 µg/mL).

For the molecule `CCn1c2ccccc2c2cc(NC(=O)CCc3ccncc3)ccc21`, the logD in data set [1] (pH 7.4, LogD7.4) worked out at 3.75. In data set [2], the thermodynamic solubility was determined as 2 µM (≈ 0.687 µg/mL).

In data set [1] (pH 7.4, LogD7.4), `O=C(NCCSCc1ccccc1)c1ccccc1` registered a log distribution coefficient (logD) of 3.3. The molecule also yielded a solubility (thermodynamic) in data set [2] of 72.4 µM (≈ 19.6 µg/mL).

On to `COc1cc2ncnc(Oc3cnn(CC(=O)Nc4ccc(N(C)C)cn4)c3)c2cc1OC`, for which the logD in data set [1] (pH 7.4, LogD7.4) amounted to 2.36. Moreover, the solubility (thermodynamic) in data set [2] amounted to 6.6 µM (≈ 2.97 µg/mL).

With `O=C(c1cc(Cc2n[nH]c(=O)c3ccccc23)ccc1F)N1CCN(C(=O)C2CCOC2)CC1` (centres undefined), in data set [1] (pH 7.4, LogD7.4), the logD came to 0.8. The molecule also returned a solubility (thermodynamic) in data set [2] of 380 µM (≈ 177 µg/mL).

Molecule `CS(=O)(=O)c1cccc(Nc2nccc(N(CC#N)c3c(Cl)ccc4c3OCO4)n2)c1` displayed a logD in data set [1] (pH 7.4, LogD7.4) of 3.16. Also, the thermodynamic solubility in data set [2] was determined as 1.3 µM (≈ 0.595 µg/mL).

In data set [1] (pH 7.4, LogD7.4), `COCCCc1cc(Nc2nc(NCc3cc(C)no3)ncc2Br)[nH]n1` gave a logD of 3.07. Also, in data set [2], the thermodynamic solubility came out at 120 µM (≈ 50.8 µg/mL).

Molecule `CC(C)Oc1cc(OCCc2ccsc2)cc(C(=O)Nc2ccc(C(=O)O)cn2)c1` showed a logD in data set [1] (pH 7.4, LogD7.4) of 1.74. The same molecule displayed a thermodynamic solubility in data set [2] of 33.9 µM (≈ 14.5 µg/mL).

Molecule `CC(C)Oc1cc(Oc2ccc(S(C)(=O)=O)cc2)cc(C(=O)Nc2nccs2)c1` gave a logD in data set [1] (pH 7.4, LogD7.4) of 3.61. This molecule also registered a solubility (thermodynamic) in data set [2] of 5.2 µM (≈ 2.25 µg/mL).

`COc1cc2ncnc(Nc3cc(NC(=O)c4ccnc(N5CCOCC5)c4)ccc3C)c2cc1OCCN1CCOCC1` had a logD in data set [1] (pH 7.4, LogD7.4) of 3.19. In data set [2], this molecule showed a thermodynamic solubility of 66.1 µM (≈ 39.6 µg/mL).

As to `Cn1c(=O)n(Cc2ccc(C(=O)O)cc2)c(=O)c2cc(C#CCc3ccccc3)ccc21`, in data set [1] (pH 7.4, LogD7.4), the log distribution coefficient (logD) was 2.5. For the same molecule, the solubility (thermodynamic) in data set [2] stood at 3 µM (≈ 1.27 µg/mL).

Turning to `O=C(CO)N1CCC(c2[nH]nc(-c3ccc(Cl)cc3)c2-c2ccncn2)CC1` [SD-0006], the logD in data set [1] (pH 7.4, LogD7.4) was found to be 1.85. The molecule further gave a solubility (thermodynamic) in data set [2] of 60.3 µM (≈ 24 µg/mL).

Turning to `Cc1nc(-c2ccccc2)c(-c2ccc(CN3CCC(n4c(=O)[nH]c5ccccc54)CC3)cc2)[nH]c1=O`, the logD in data set [1] (pH 7.4) was 3.9. Also, in data set [2], the solubility (thermodynamic) came to 27.5 µM (≈ 13.5 µg/mL).

As for `CN(C(=O)NCc1ccccc1)C1CCN(CCC(c2ccccc2)c2ccccc2)CC1`, the logD in data set [1] (pH 7.4, LogD7.4) worked out at 3.4. In data set [2], this molecule had a thermodynamic solubility of 25.7 µM (≈ 11.3 µg/mL).

In turn, `Cc1nc(CSc2ccc(Cl)cc2)cc(N2CCOCC2)n1` returned a logD in data set [1] (pH 7.4, LogD7.4) of 3.38. Also, the solubility (thermodynamic) in data set [2] came to 107 µM (≈ 36 µg/mL).

As for `Cc1nc(S(C)(=O)=O)ccc1Nc1ncnc(OC2CCN(C(=O)OC(C)C)CC2)c1C`, in data set [1] (pH 7.4, LogD7.4), the logD came to 2.8. In data set [2], this molecule registered a solubility (thermodynamic) of 12.3 µM (≈ 5.7 µg/mL).

The molecule `CNc1cccc(CCOc2ccc(C[C@H](NC(=O)c3c(F)cccc3Cl)C(=O)O)cc2)n1` gave a logD in data set [1] (pH 7.4, LogD7.4) of -0.42. This molecule also came in with a solubility (thermodynamic) in data set [2] of 1230 µM (≈ 581 µg/mL).

For `CNC(=O)c1cc(-c2nc(N3CCOCC3)cc(C3(S(C)(=O)=O)CC3)n2)c2cc[nH]c2c1`, the log distribution coefficient (logD) in data set [1] (pH 7.4, LogD7.4) stood at 1.7. In addition, the solubility (thermodynamic) in data set [2] was found to be 46.8 µM (≈ 21.3 µg/mL).

`Nc1cc(-c2ccccc2)ncn1` returned a log distribution coefficient (logD) in data set [1] (pH 7.4, LogD7.4) of 1.91. The same molecule showed a thermodynamic solubility in data set [2] of 372 µM (≈ 63.6 µg/mL).

With `CN1CCN(CC(=O)Nc2ccc(-c3cccn4c(=O)cc(N5CCOCC5)nc34)c3sc4ccccc4c23)CC1`, the logD in data set [1] (pH 7.4, LogD7.4) amounted to 2.6. Further, in data set [2], the solubility (thermodynamic) was 5.4 µM (≈ 3.07 µg/mL).

Regarding `Cc1c(-c2ccc3c(c2)OCO3)c(=O)n(C[C@H](N)c2ccccc2)c(=O)n1Cc1c(F)cccc1F`, the logD in data set [1] (pH 7.4, LogD7.4) was determined as 2.67. In data set [2], the solubility (thermodynamic) worked out at 372 µM (≈ 183 µg/mL).

As to `Oc1ccc(-c2nc3ccccc3s2)cc1`, the logD in data set [1] (pH 7.4, LogD7.4) was 4.1. In addition, in data set [2], the thermodynamic solubility was determined as 7.9 µM (≈ 1.8 µg/mL).

For `O=C(N1CCN(c2ccncc2Cl)CC1)N1CCN(S(=O)(=O)c2ccc(C(F)(F)F)cc2)CC1`, the logD in data set [1] (pH 7.4, LogD7.4) worked out at 3.54. The molecule further came in with a thermodynamic solubility in data set [2] of 3.9 µM (≈ 2.02 µg/mL).

`C[C@H](NC1=NC(=O)[C@](C)(C(F)(F)F)S1)c1ccccc1F`: the logD in data set [1] (pH 7.4, LogD7.4) worked out at 3.1. The same molecule showed a solubility (thermodynamic) in data set [2] of 87.1 µM (≈ 27.9 µg/mL).

Molecule `Nc1ncc(-c2cnn(C3CCN(C(=O)CO)CC3)c2)cc1-c1nc2ccccc2o1` registered a logD in data set [1] (pH 7.4, LogD7.4) of 3.2. Further, the solubility (thermodynamic) in data set [2] was 2 µM (≈ 0.837 µg/mL).

In data set [1] (pH 7.4, LogD7.4), `Nc1nccc(-c2c[nH]c3ccccc23)n1` returned a logD of 1.68. This molecule also had a thermodynamic solubility in data set [2] of 575 µM (≈ 121 µg/mL).

Molecule `CCN(CC)C(=O)Cc1csc(NS(=O)(=O)c2cccc(Cl)c2C)n1` yielded a log distribution coefficient (logD) in data set [1] (pH 7.4, LogD7.4) of 1.67. The thermodynamic solubility in data set [2] was 40.7 µM (≈ 16.4 µg/mL).

With `COc1ccc(Cl)cc1NC(=O)Nc1cnccn1`, the logD in data set [1] (pH 7.4, LogD7.4) was 3.63. The same molecule came in with a thermodynamic solubility in data set [2] of 0.7 µM (≈ 0.195 µg/mL).

In data set [1] (pH 7.4, LogD7.4), `Cc1cc(Nc2nc(NCc3cc(C)no3)ncc2Br)[nH]n1` came in with a logD of 2.92. In addition, the solubility (thermodynamic) in data set [2] came out at 61.7 µM (≈ 22.5 µg/mL).

`COc1cccc(-c2c[nH]c(-c3ccccc3)n2)c1` returned a logD in data set [1] (pH 7.4, LogD7.4) of 3.8. This molecule had a solubility (thermodynamic) in data set [2] of 36.3 µM (≈ 9.09 µg/mL).

With `Cc1ccc(NC(=O)C2CC2)cc1-n1cnc2ccc(N3CCN(C)CC3)cc2c1=O`, the logD in data set [1] (pH 7.4, LogD7.4) was 2.17. Also, the thermodynamic solubility in data set [2] was 1510 µM (≈ 632 µg/mL).

`Cc1sc(N2CCN(C)CC2)nc1CCOc1ccc(C[C@H](Nc2ccccc2C(=O)c2ccccc2)C(=O)O)cc1` had a logD in data set [1] (pH 7.4, LogD7.4) of 2.58. The molecule also had a thermodynamic solubility in data set [2] of 97.7 µM (≈ 57.1 µg/mL).
